Measurements reported in ChEMBL document CHEMBL5257025, “Artemisinin-Derived Dimers: Potent Antimalarial and Anticancer Agents” (J Med Chem, 2016).

Test system: Plasmodium berghei
Test: In vivo antimalarial activity against Plasmodium berghei infected mouse model assessed as survival time at 8 mg/kg, po in presence of Mefloquine hydrochloride

`CO[C@H]1O[C@@H]2O[C@@]3(C)CC[C@H]4[C@H](C)CC[C@@H]([C@H]1C)[C@@]24OO3` was tested, and the survival time was 23 days.
